Test results as given in patent EP2822595B1, “SPHINGOSINE-1 -PHOSPHATE RECEPTORS MODULATORS FOR IMPROVING VACCINE IMMUNIZATION” (Istituto Superiore di Sanità, priority 2012, dated 2013).
Where two headings read alike, the source gives them in different places.

Experiments:
[1] = test system: TT-specific antibody responses; type: in vivo, BALB/c mice; conditions: FTY720 0.5 mg/Kg intragastric 48 and 24 hours before intranasal TT+CT
[2] = test system: TT-specific antibody secreting cells (ASC); type: in vivo, BALB/c mice; conditions: bone marrow
[3] = test system: patients affected by Multiple Sclerosis; conditions: cited from earlier work
[4] = test system: antigen-specific CD4^+ and CD8^+ T lymphocytes; assay: CFSE proliferation assay of TT-specific T lymphocytes after intranasal immunization; type: in vivo, BALB/c mice
[5] = test system: TT-specific antibody responses; type: in vivo, BALB/c mice; conditions: for titre of TT-specific IgA antibodies: one week after the recall dose, vs TT+CT without treatment
[6] = test system: TT-specific antibody responses; type: in vivo, BALB/c mice; conditions: sera
[7] = test system: antigen-specific CD4^+ and CD8^+ proliferating cells; assay: CFSE proliferation assay of TT-specific T lymphocytes after systemic (intraperitoneal) immunization; type: in vivo, BALB/c mice; conditions: 4 months after the second intraperitoneal immunization, vs non treated, p < 0.05
[8] = test system: Ova-specific CD4^+ and CD8^+ T lymphocytes; type: in vivo, BALB/c mice; conditions: 8 months after the fourth immunization, vs non treated
[9] = test system: S1P receptors (S1P1, S1P3, S1P4 e S1P5); conditions: 4 of 5 S1P receptors (S1P1, S1P3, S1P4 e S1P5); cited from earlier work
[10] = oral, 0.5 and 1.25 mg a day, phase III clinical trials
[11] = draining (mediastinal) lymph nodes, two weeks after the fourth immunization, vs immunized non treated mice, p < 0.05
[12] = draining lymph nodes, 8 months after the fourth immunization, one week after one recall dose, vs non treated, p < 0.05
[13] = spleen, 8 months after the fourth immunization, after one recall dose, vs non treated
[14] = spleen, two weeks after the fourth immunization, treated vs non treated
[15] = serum, TT-specific, TT+CT intranasal plus FTY720 vs without, at different analyzed kinetic points

With CCCCCCCCc1ccc(CCC(N)(CO)CO)cc1.Cl [FTY720, 2-amino-2-(2-(4-octylphenyl)ethyl)propane-1,3-diol hydrochloride] the “titre of anti-tetanus IgG antibodies” value ([1]; one week after the second immunization, data not showed) was “only the titre of anti-tetanus IgG antibodies in mice immunized with TT and CT was appreciable”, the “titre of IgG antibody specific for the TT” value ([1]; one week after the third immunization) was “higher in mice immunized with TT and CT in the absence of treatment” and the “number of anti-TT IgG ASC” value ([2]; two weeks after the fourth immunization, immunized and not treated mice: 60) was 115 ASC/1×10^6 of cells. For the same compound, the “number of anti-TT IgA ASC” value ([2]; two weeks after the fourth immunization, non treated: 40) was 80 ASC/1×10^6 of cells, the “number of anti-TT IgG ASC” value ([2]; two weeks after the recall dose (4 months after fourth immunization), non treated: 123) was 240 ASC/1×10^6 of cells and the “number of anti-TT IgA ASC” value ([2]; two weeks after the recall dose, non treated: 58) was 136 ASC/1×10^6 of cells. The infectious complications ([3]; mainly in patients who received the higher dose (1.25 mg a day)) was “some infectious complications”, the “effectiveness in Multiple Sclerosis patients” value [3, 10] was “effective” and the “tolerability in Multiple Sclerosis patients” value [3, 10] was “well tolerated”. The “proliferation of antigen-specific CD4^+ T lymphocytes” value [4, 11] was “significantly higher”, the “proliferation of antigen-specific CD8^+ T lymphocytes” value [4, 11] was “significantly higher” and the “proliferation of antigen-specific CD4^+ T lymphocytes” value [4, 12] was “higher”. For the same compound, the “proliferation of antigen-specific CD8^+ T lymphocytes” value [4, 12] was “higher”, the “percentage of antigen-specific CD4^+ T lymphocytes” value [4, 13] was “higher percentage” and the “percentage of antigen-specific CD8^+ T lymphocytes” value [4, 13] was “higher percentage”. The “proliferation of antigen-specific CD4^+ T lymphocytes” value [4, 14] was “comparable”, the “proliferation of antigen-specific CD8^+ T lymphocytes” value [4, 14] was “comparable” and the “titre of TT-specific IgA antibodies” value ([5]; saliva) was “higher titres”. The “titre of IgG1 subclass” value [5, 15] was “Increase of the titre”, the “titre of IgG2a subclass” value [5, 15] was “Increase of the titre” and the “anti-TT IgG antibody titre” value ([5]; serum, four months after the fourth immunization (pre-boost), vs immunized mice without treatment) was “maintained at higher levels”. The “IgG antibodies specific for the TT” value ([5]; serum, one week after boost given four months after the fourth immunization, vs immunized mice without treatment) was “higher levels”, the “anti-tetanus IgG antibody titre” value ([5]; serum, one week after the fourth intranasal immunization, TT+CT plus FTY720 (761) vs TT+CT without treatment (304), apparently times over TT only) was 761 and the “anti-tetanus IgG antibody titre” value ([5]; serum, one week after the second intranasal immunization with TT+CT, FTY720 0.5 mg/Kg intragastric the day after first and second immunization, TT+CT without treatment: 54 times) was 305 times with respect to the titre of mice which received only TT. The “anti-tetanus IgG antibody titre” value ([5]; serum, one week after the third intranasal immunization, TT+CT plus FTY720 vs TT+CT without treatment) was “increase”, the “titre of TT-specific IgA antibodies” value ([5]; vaginal washes (VW)) was “higher titres” and the “titre of anti-tetanus IgG antibodies, differences between the two groups” value ([6]; one month after the second intraperitoneal immunization, treated vs non treated, differences decreased) was “still detectable”. For the same compound, the “titre of anti-tetanus IgG antibodies” value ([6]; one week after the first intraperitoneal immunization with TT+CT, FTY720 0.5 mg/Kg intragastrically the day after immunization, TT+CT without treatment: 63 times) was 203 times with respect to the titre of mice immunized only with TT, the “titre of anti-tetanus IgG antibodies” value ([6]; one week after the second intraperitoneal immunization, TT+CT plus FTY720 (575) vs TT+CT without treatment (152), apparently times over TT only) was 575 and the “percentage of antigen-specific CD4^+ proliferating cells” value ([7]; lymph nodes) was “higher percentage”. The “percentage of antigen-specific CD8^+ proliferating cells” value ([7]; lymph nodes) was “higher percentage”, the “percentage of antigen-specific CD4^+ proliferating cells” value ([7]; spleen) was “higher percentage” and the “percentage of antigen-specific CD8^+ proliferating cells” value ([7]; spleen) was “higher percentage”. The “percentage of Ova-specific CD4^+ T lymphocytes” value ([8]; draining lymph nodes) was “higher percentage”, the “percentage of Ova-specific CD8^+ T lymphocytes” value ([8]; draining lymph nodes) was “higher percentage” and the “percentage of Ova-specific CD4^+ T lymphocytes” value ([8]; spleen) was “higher percentage”. For the same compound, the “percentage of Ova-specific CD8^+ T lymphocytes” value ([8]; spleen) was “higher percentage” and the “agonist activity at S1P receptors” value [9] was “strong agonist”.
